According to ChEMBL document CHEMBL5543174, “A Nonbactericidal Anionic Antimicrobial Peptide Provides Prophylactic and Therapeutic Efficacies against Bacterial Infections in Mice by Immunomodulatory-Antithrombotic Duality” (J Med Chem, 2024):
The source made the active and inactive calls. No cut-off for these calls is given here.

Tests used:
Acinetobacter junii = experiment: Antimicrobial activity against Acinetobacter junii ATCC 17908 assessed as inhibition of microbial growth at <= 200 ug/ml incubated for 18 hrs by micro-broth dilution method; type: functional, organism-based; details: dose <= 200.0 µg/ml
Staphylococcus aureus [1] = experiment: Antimicrobial activity against Methicillin-resistant Staphylococcus aureus assessed as inhibition of microbial growth at <= 200 ug/ml incubated for 18 hrs by micro-broth dilution method; type: functional, organism-based; details: dose <= 200.0 µg/ml
Candida albicans = experiment: Antimicrobial activity against Candida albicans ATCC 2002 assessed as reduction in metabolic activity at < 200 ug/ml incubated for 1 to 4 hrs by CCK-8 assay; type: functional, organism-based; details: dose < 200.0 µg/ml, time 1-4 hrs
Staphylococcus aureus [2] = experiment: Antibacterial activity against Methicillin-resistant Staphylococcus aureus infected in C57BL/6 mouse assessed as reduction in bacterial load at 10 mg/kg,ip pre-administrated 5 hrs before bacterial infection; type: functional, organism-based
Staphylococcus aureus [3] = experiment: Antibacterial activity against Staphylococcus aureus ATCC 25923 infected in C57BL/6 mouse assessed as reduction in TNF-alpha level in peritoneal fluid at 10 mg/kg,ip pre-administrated 5 hrs before bacterial infection measured after 24 hrs by ELISA; type: functional, organism-based; details: time 29.0 hrs
Staphylococcus aureus [4] = experiment: Antibacterial activity against Staphylococcus aureus ATCC 25923 infected in C57BL/6 mouse assessed as reduction in TNF-alpha level in peritoneal fluid at 10 mg/kg,ip administrated 5 hrs after bacterial infection measured after 24 hrs by ELISA; type: functional, organism-based; details: time 19.0 hrs
Staphylococcus aureus [5] = experiment: Antibacterial activity against Staphylococcus aureus ATCC 25923 infected in C57BL/6 mouse assessed as reduction in IL-6 level in peritoneal fluid at 10 mg/kg,ip administrated 5 hrs after bacterial infection measured after 24 hrs by ELISA; type: functional, organism-based; details: time 19.0 hrs
Escherichia coli [6] = experiment: Antibacterial activity against Escherichia coli ATCC 25922 infected in C57BL/6 mouse assessed as reduction in TNF-alpha level in peritoneal fluid at 10 mg/kg,ip pre-administrated 5 hrs before bacterial infection measured after 24 hrs by ELISA; type: functional, organism-based; details: time 29.0 hrs
Escherichia coli [7] = experiment: Antibacterial activity against Escherichia coli ATCC 25922 infected in C57BL/6 mouse assessed as reduction in IL-1beta level in peritoneal fluid at 10 mg/kg,ip pre-administrated 5 hrs before bacterial infection measured after 24 hrs by ELISA; type: functional, organism-based; details: time 29.0 hrs
Staphylococcus aureus [8] = experiment: Antibacterial activity against Methicillin-resistant Staphylococcus aureus infected in C57BL/6 mouse assessed as reduction in TNF-alpha level in peritoneal fluid at 10 mg/kg,ip administrated 5 hrs after bacterial infection measured after 24 hrs by ELISA; type: functional, organism-based; details: time 19.0 hrs
Escherichia coli [9] = experiment: Antibacterial activity against Escherichia coli ATCC 25922 infected in C57BL/6 mouse assessed as reduction in IL-6 level in serum at 10 mg/kg,ip administrated 5 hrs after bacterial infection measured after 24 hrs by ELISA; type: functional, organism-based; details: time 19.0 hrs
Staphylococcus aureus [10] = experiment: Antibacterial activity against Methicillin-resistant Staphylococcus aureus infected in C57BL/6 mouse assessed as reduction in IL-1beta level in serum at 10 mg/kg,ip pre-administrated 5 hrs before bacterial infection measured after 24 hrs by ELISA; type: functional, organism-based; details: time 29.0 hrs
Escherichia coli [11] = experiment: Antibacterial activity against Carbapenem-resistant Escherichia coli infected in C57BL/6 mouse assessed as reduction in IL-6 level in serum at 10 mg/kg,ip administrated 5 hrs after bacterial infection measured after 24 hrs by ELISA; type: functional, organism-based; details: time 19.0 hrs
Staphylococcus aureus [12] = experiment: Antibacterial activity against Staphylococcus aureus ATCC 25923 infected in C57BL/6 mouse assessed as increase in survival rate at 10 mg/kg,ip pre-administrated 5 hrs before bacterial infection measured after 7 days; type: functional, organism-based; details: time 7.0 day
Escherichia coli [13] = experiment: Antibacterial activity against Carbapenem-resistant Escherichia coli infected in C57BL/6 mouse assessed as increase in survival rate at 10 mg/kg,ip administrated 5 hrs after bacterial infection measured after 7 days; type: functional, organism-based; details: time 7.0 day
Mus musculus [14] = experiment: Immunomodulatory activity in clodronate liposome immunosuppressed C57BL/6 mouse with monocyte depletion model assessed as increase in number of monocyte in peritoneal lavage at 10 mg/kg,ip administration measured after 24 hrs by flow cytometry; type: functional, organism-based
Mus musculus [15] = experiment: Immunomodulatory activity in clodronate liposome immunosuppressed C57BL/6 mouse with neutrophil depletion model assessed as change in B-lymphocytes in peritoneal lavage at 10 mg/kg,ip administration measured after 5 to 24 hrs by flow cytometry; type: functional, organism-based; details: time 5-24 hrs
[16] = system: Peritoneal macrophage cell; experiment: Induction of chemotaxis in mouse Peritoneal macrophage assessed as upregulation of CXCL2 expression incubated for 6 hrs by ELISA; type: functional, cell-based
[17] = system: Peritoneal macrophage cell; experiment: Induction of phagocytosis in mouse Peritoneal macrophage assessed as increase in neutral red dye uptake by measuring optical density absorbance at 50 ug/ml incubated for 24 hrs followed by dye addition measured after 4 hrs by absorbance based assay (reference value: 0.089); type: functional; details: dose 50 µg/ml; time 28 hrs
[18] = system: Peritoneal macrophage cell; experiment: Induction of chemotaxis in mouse Peritoneal macrophage assessed as increase in macrophage migration at 100 ug/ml preincubated with KN62 for 30 mins followed by compound addition measured after 8 hrs by crystal violet staining based indirect transwell assay; type: functional, cell-based; details: dose 100.0 µg/ml
Peritoneal macrophage [19] = experiment: Immunoregulatory activity in mouse Peritoneal macrophage assessed as upregulation of JNK phosphorylation incubated for 1 hr by Western blotting analysis; type: functional, cell-based
Peritoneal macrophage [20] = experiment: Immunoregulatory activity in mouse Peritoneal macrophage assessed as change in total ERK expression at 25 to 100 ug/ml incubated for 1 hr by Western blotting analysis; type: functional, cell-based; details: dose 25-100 µg/ml
Mus musculus [21] = experiment: Antithrombotic activity in BALB/c mouse dorsal skin defect model assessed as increase in skin bleeding time at 10 mg/kg,SC administration; type: functional, organism-based
Plasma = experiment: Anticoagulation activity in human platelet poor plasma assessed as elongation of activated partial thromboplastin time at 100 ug/ml measured after 5 mins; type: functional, cell-free; details: dose 100.0 µg/ml
Mus musculus [22] = experiment: Anticoagulation activity in mouse assessed as change in plasma TFPI expression at 10 mg/kg,ip measured after 24 hrs by ELISA; type: functional, organism-based
Mus musculus [23] = experiment: Anticoagulation activity in mouse infected with Methicillin-resistant Staphylococcus aureus assessed as increase in plasma TFPI expression at 10 mg/kg,ip administrated 5 hrs after bacterial infection measured after 24 hrs by ELISA; type: functional, organism-based; details: time 19.0 hrs
Mus musculus [24] = experiment: Anticoagulation activity in mouse infected with Methicillin-resistant Staphylococcus aureus assessed as increase in plasma APC expression at 10 mg/kg,ip administrated 5 hrs after bacterial infection measured after 24 hrs by ELISA; type: functional, organism-based; details: time 19.0 hrs
Mus musculus [25] = experiment: Anticoagulation activity in mouse infected with Carbapenem-resistant Escherichia coli assessed as increase in plasma TFPI expression at 10 mg/kg,ip pre-administrated 5 hrs before bacterial infection measured after 24 hrs by ELISA; type: functional, organism-based; details: time 29.0 hrs
Mus musculus [26] = experiment: Anticoagulation activity in mouse infected with Carbapenem-resistant Escherichia coli assessed as increase in plasma AT-III expression at 10 mg/kg,ip administrated 5 hrs after bacterial infection measured after 24 hrs by ELISA; type: functional, organism-based; details: time 19.0 hrs
Escherichia coli [27] = experiment: Antibacterial activity against Carbapenem-resistant Escherichia coli infected in C57BL/6 mouse with cyclophosphamide-induced neutrophil depletion model assessed as decrease in bacterial burden in peritoneal cavity at 10 mg/kg,ip pre-administrated 5 hrs before bacterial infection measured after 24 hrs; type: functional, organism-based; details: time 29.0 hrs

Q: Which Activity (Acinetobacter junii) does the source give for `CC[C@H](C)[C@H](NC(=O)[C@@H]1CSSC[C@H](NC(=O)[C@H](CCC(=O)O)NC(=O)[C@@H](NC(=O)[C@H](CCCCN)NC(=O)[C@H](Cc2c[nH]cn2)NC(=O)[C@@H](NC(=O)[C@H](CCCCN)NC(=O)[C@H](CCC(=O)O)NC(=O)[C@H](C)NC(=O)[C@H](CCC(=O)O)NC(=O)[C@H](CCC(=O)O)NC(=O)[C@H](CCC(=O)O)NC(=O)[C@H](C)N)[C@@H](C)O)[C@@H](C)O)C(=O)N[C@@H](CC(C)C)C(=O)N[C@@H](CCC(=O)O)C(=O)N1)C(=O)N[C@@H](Cc1ccccc1)C(=O)N[C@H](C(=O)N[C@@H](CC(C)C)C(=O)N[C@@H](CC(C)C)C(=O)N1CCC[C@H]1C(=O)N1CCC[C@@H]1C(=O)N[C@H](C)C(=O)O)[C@@H](C)O` here?
A: inactive

Q: And the Activity (Staphylococcus aureus [1])?
A: inactive

Q: What about the Activity (Candida albicans) of the same compound?
A: inactive

Q: What about the Activity (Staphylococcus aureus [2]) of the same compound?
A: Active

Q: And the Activity (Staphylococcus aureus [3])?
A: Active

Q: And the Activity (Staphylococcus aureus [4])?
A: Active

Q: And the Activity (Staphylococcus aureus [5])?
A: Active

Q: What about the Activity (Escherichia coli [6]) of the same compound?
A: Active

Q: What about the Activity (Escherichia coli [7]) of the same compound?
A: Active

Q: What about the Activity (Staphylococcus aureus [8]) of the same compound?
A: Active

Q: And the Activity (Escherichia coli [9])?
A: Active

Q: What about the Activity (Staphylococcus aureus [10]) of the same compound?
A: Active

Q: What about the Activity (Escherichia coli [11]) of the same compound?
A: Active

Q: What about the Activity (Staphylococcus aureus [12]) of the same compound?
A: Active

Q: What about the Activity (Escherichia coli [13]) of the same compound?
A: Active

Q: What about the Activity (Mus musculus [14]) of the same compound?
A: inactive

Q: What about the Activity (Mus musculus [15]) of the same compound?
A: inactive

Q: What about the Activity [16] of the same compound?
A: Dose-Dependent Effect

Q: And the OD [17]?
A: 0.102

Q: What about the Activity [18] of the same compound?
A: Active

Q: What about the Activity (Peritoneal macrophage [19]) of the same compound?
A: Dose-Dependent Effect

Q: What about the Activity (Peritoneal macrophage [20]) of the same compound?
A: inactive

Q: And the Activity (Mus musculus [21])?
A: inactive

Q: And the Activity (Plasma)?
A: inactive

Q: And the Activity (Mus musculus [22])?
A: inactive

Q: And the Activity (Mus musculus [23])?
A: Active

Q: And the Activity (Mus musculus [24])?
A: Active

Q: What about the Activity (Mus musculus [25]) of the same compound?
A: Active

Q: What about the Activity (Mus musculus [26]) of the same compound?
A: Active

Q: And the Activity (Escherichia coli [27])?
A: inactive
